Assay results taken from PubChem BioAssay (NCI).
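Exposure lasted 48 hours, with cells grown in 96-well plates and compounds tested at five concentrations. GI50 = concentration required for 50% inhibition of growth. At the TGI there is no net growth.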

What was measured:
Assay in all cases: growth of human tumour cells (NCI), 48 h
EKVX NSCLC = system: EKVX NSCLC
HT29 colon = system: HT29 colon
M14 melanoma = system: M14 melanoma
SF-268 CNS = system: SF-268 CNS
CCRF-CEM leukemia = system: CCRF-CEM leukemia
SK-MEL-5 melanoma = system: SK-MEL-5 melanoma
NCI-H23 lung = system: NCI-H23 lung
SF-295 CNS = system: SF-295 CNS
ACHN renal = system: ACHN renal
OVCAR-5 ovarian = system: OVCAR-5 ovarian

`CS(=O)(=O)OCCN(CCOS(C)(=O)=O)c1ccc(C=O)cc1` gave a TGI (EKVX NSCLC) of 25.4 µM, a TGI (HT29 colon) of 57.9 µM and a TGI (M14 melanoma) of 30.4 µM. For the same molecule, the TGI (SF-268 CNS) was 43.5 µM, the TGI (CCRF-CEM leukemia) was 46.2 µM and the TGI (SK-MEL-5 melanoma) was 29.1 µM. For the same molecule, the TGI (NCI-H23 lung) was 12.6 µM, the TGI (SF-295 CNS) was 25.9 µM and the TGI (ACHN renal) was 2.69 µM. The TGI (OVCAR-5 ovarian) was 14.4 µM.

`COc1cc(OC)c(C(=O)/C=C/c2cccc(OC(C)=O)c2)cc1CC=C(C)C` gave a GI50 (EKVX NSCLC) of 30.2 µM, a TGI (EKVX NSCLC) of over 50 µM and a GI50 (HT29 colon) of 5.92 µM. For the same molecule, the TGI (HT29 colon) was 17.3 µM, the GI50 (M14 melanoma) was 7.3 µM and the TGI (M14 melanoma) was 18.2 µM. The GI50 (SF-268 CNS) was 7.26 µM, the TGI (SF-268 CNS) was 22.7 µM and the GI50 (CCRF-CEM leukemia) was 7 µM. It also gave a TGI (CCRF-CEM leukemia) of 31 µM, a GI50 (SK-MEL-5 melanoma) of 6.47 µM and a TGI (SK-MEL-5 melanoma) of 13.3 µM. It also gave a GI50 (NCI-H23 lung) of 8.05 µM, a TGI (NCI-H23 lung) of 18.5 µM and a GI50 (SF-295 CNS) of 11.9 µM. It also gave a TGI (SF-295 CNS) of over 50 µM, a GI50 (ACHN renal) of 10.1 µM and a TGI (ACHN renal) of 29.2 µM. It also gave a GI50 (OVCAR-5 ovarian) of 11.9 µM and a TGI (OVCAR-5 ovarian) of 22.5 µM.

`C=CC1=C(C)C2=NC1=CC1=NC(=CC3=C(C)C4=C(O)C(C(=O)OC)C(=C5NC(=C2)C(C)C5CCC(=O)OC)C4=N3)C(CC)=C1C` (stereo not drawn) was tested, and the TGI (EKVX NSCLC) was over 100 µM, the TGI (HT29 colon) was over 100 µM and the TGI (M14 melanoma) was over 100 µM. It also gave a TGI (SF-268 CNS) of over 100 µM, a TGI (CCRF-CEM leukemia) of over 100 µM and a TGI (SK-MEL-5 melanoma) of over 100 µM. The TGI (NCI-H23 lung) was over 100 µM, the TGI (SF-295 CNS) was over 100 µM and the TGI (ACHN renal) was over 100 µM. The TGI (OVCAR-5 ovarian) was over 100 µM.

`COC(=O)C1C(OCc2ccccc2)C2CCC1(OC)C=C2C` (stereo not drawn) was tested, and the TGI (EKVX NSCLC) was over 100 µM, the TGI (HT29 colon) was over 100 µM and the TGI (M14 melanoma) was over 100 µM. For the same molecule, the TGI (SF-268 CNS) was over 100 µM, the TGI (CCRF-CEM leukemia) was 65 µM and the TGI (SK-MEL-5 melanoma) was over 100 µM. The TGI (NCI-H23 lung) was over 100 µM, the TGI (SF-295 CNS) was over 100 µM and the TGI (ACHN renal) was over 100 µM. The TGI (OVCAR-5 ovarian) was over 100 µM.

For `O=c1c2cccnc2ncn1CCN1CCCC1`, the TGI (EKVX NSCLC) was over 100 µM, the TGI (HT29 colon) was over 100 µM and the TGI (M14 melanoma) was over 100 µM. The TGI (SF-268 CNS) was over 100 µM, the TGI (CCRF-CEM leukemia) was over 100 µM and the TGI (SK-MEL-5 melanoma) was over 100 µM. It also gave a TGI (NCI-H23 lung) of over 100 µM, a TGI (SF-295 CNS) of over 100 µM and a TGI (ACHN renal) of over 100 µM. For the same molecule, the TGI (OVCAR-5 ovarian) was over 100 µM.

`O=c1c2ccccc2nc(-c2cccc(Cl)c2)n1NCC1(O)OCC(O)C(O)C1O` (stereo not drawn) gave a TGI (EKVX NSCLC) of over 100 µM, a TGI (HT29 colon) of over 100 µM and a TGI (M14 melanoma) of over 100 µM. The TGI (SF-268 CNS) was over 100 µM, the TGI (CCRF-CEM leukemia) was over 100 µM and the TGI (NCI-H23 lung) was over 100 µM. For the same molecule, the TGI (SF-295 CNS) was over 100 µM, the TGI (ACHN renal) was over 100 µM and the TGI (OVCAR-5 ovarian) was over 100 µM.

`O=C1CCS/C(=N\S(=O)(=O)c2ccc(N3N=C4c5ccccc5CC4C3c3cccs3)cc2)N1C(=O)c1ccccc1` (stereo not drawn) showed a GI50 (EKVX NSCLC) of 22.1 µM, a TGI (EKVX NSCLC) of over 100 µM and a GI50 (HT29 colon) of 39.6 µM. It also gave a TGI (HT29 colon) of over 100 µM, a GI50 (M14 melanoma) of 10.8 µM and a TGI (M14 melanoma) of 27.2 µM. The GI50 (SF-268 CNS) was 13.7 µM, the TGI (SF-268 CNS) was over 100 µM and the GI50 (CCRF-CEM leukemia) was 15 µM. It also gave a TGI (CCRF-CEM leukemia) of 42.7 µM, a GI50 (SK-MEL-5 melanoma) of 2.56 µM and a TGI (SK-MEL-5 melanoma) of 6.07 µM. The GI50 (NCI-H23 lung) was 17.2 µM, the TGI (NCI-H23 lung) was 41.5 µM and the GI50 (SF-295 CNS) was 32.7 µM. It also gave a TGI (SF-295 CNS) of over 100 µM, a GI50 (ACHN renal) of 5.18 µM and a TGI (ACHN renal) of 18.5 µM. For the same molecule, the GI50 (OVCAR-5 ovarian) was 25.8 µM and the TGI (OVCAR-5 ovarian) was 54.3 µM.

`C=C1C(=O)OC2CC(C)C3C=CC(=O)C3CC12` (stereo not drawn) showed a TGI (EKVX NSCLC) of 26.3 µM, a TGI (HT29 colon) of 4.83 µM and a TGI (M14 melanoma) of 3.46 µM. It also gave a TGI (SF-268 CNS) of 7.4 µM, a TGI (CCRF-CEM leukemia) of 5.14 µM and a TGI (SK-MEL-5 melanoma) of 6.04 µM. The TGI (NCI-H23 lung) was 4.03 µM, the TGI (SF-295 CNS) was 28.9 µM and the TGI (ACHN renal) was 8.21 µM. The TGI (OVCAR-5 ovarian) was 10.4 µM.

`CCC(C(=O)c1ccccc1)C(CCCC(=O)Nc1c(C)cccc1C)N=O` (stereo not drawn) gave a TGI (EKVX NSCLC) of over 100 µM, a TGI (HT29 colon) of over 100 µM and a TGI (M14 melanoma) of over 100 µM. The TGI (SF-268 CNS) was over 100 µM, the TGI (CCRF-CEM leukemia) was over 100 µM and the TGI (SK-MEL-5 melanoma) was over 100 µM. The TGI (NCI-H23 lung) was over 100 µM, the TGI (SF-295 CNS) was over 100 µM and the TGI (ACHN renal) was over 100 µM. The TGI (OVCAR-5 ovarian) was over 100 µM.

In the case of `C=C1C(=O)O[C@H]2[C@H]1CC/C(Cn1cc(-c3cc(C)c(C)cc3C)nn1)=C\CC[C@@]1(C)O[C@@H]21`, the GI50 (EKVX NSCLC) was 1.22 µM, the TGI (EKVX NSCLC) was 2.53 µM and the GI50 (HT29 colon) was 0.502 µM. For the same molecule, the TGI (HT29 colon) was 1.91 µM, the GI50 (M14 melanoma) was 1.5 µM and the TGI (M14 melanoma) was 3.27 µM. The GI50 (SF-268 CNS) was 1.52 µM, the TGI (SF-268 CNS) was 3.06 µM and the GI50 (CCRF-CEM leukemia) was 0.458 µM. For the same molecule, the TGI (CCRF-CEM leukemia) was 2.65 µM, the GI50 (SK-MEL-5 melanoma) was 1.66 µM and the TGI (SK-MEL-5 melanoma) was 3.12 µM. For the same molecule, the GI50 (NCI-H23 lung) was 1.77 µM, the TGI (NCI-H23 lung) was 3.99 µM and the GI50 (SF-295 CNS) was 6.44 µM. It also gave a TGI (SF-295 CNS) of 20.7 µM, a GI50 (ACHN renal) of 1.07 µM and a TGI (ACHN renal) of 2.34 µM. It also gave a GI50 (OVCAR-5 ovarian) of 1.74 µM and a TGI (OVCAR-5 ovarian) of 4.38 µM.

`NC(=O)c1ccc2nc3c(n2c1)C(=O)C(=O)c1ccccc1-3` showed a GI50 (EKVX NSCLC) of 1.65 µM, a TGI (EKVX NSCLC) of 3.01 µM and a GI50 (HT29 colon) of 2.4 µM. It also gave a TGI (HT29 colon) of 6.01 µM, a GI50 (M14 melanoma) of 0.381 µM and a TGI (M14 melanoma) of 1.23 µM. The GI50 (SF-268 CNS) was 0.436 µM, the TGI (SF-268 CNS) was 1.66 µM and the GI50 (CCRF-CEM leukemia) was 0.931 µM. It also gave a TGI (CCRF-CEM leukemia) of 5.42 µM, a GI50 (SK-MEL-5 melanoma) of 0.936 µM and a TGI (SK-MEL-5 melanoma) of 2.25 µM. For the same molecule, the GI50 (NCI-H23 lung) was 0.42 µM, the TGI (NCI-H23 lung) was 2.8 µM and the GI50 (SF-295 CNS) was 1.67 µM. For the same molecule, the TGI (SF-295 CNS) was 3.07 µM, the GI50 (ACHN renal) was 1.34 µM and the TGI (ACHN renal) was 2.62 µM. The GI50 (OVCAR-5 ovarian) was 1.72 µM and the TGI (OVCAR-5 ovarian) was 3.15 µM.

In the case of `Cc1c2c(cc3c(=O)ccn(CCN(C)C)c13)c(=O)ccn2CCN(C)C`, the TGI (EKVX NSCLC) was 29 µM, the TGI (M14 melanoma) was 25 µM and the TGI (SF-268 CNS) was 21.8 µM. It also gave a TGI (CCRF-CEM leukemia) of 27.9 µM, a TGI (SK-MEL-5 melanoma) of 34.4 µM and a TGI (NCI-H23 lung) of 33.9 µM. For the same molecule, the TGI (SF-295 CNS) was 25.4 µM, the TGI (ACHN renal) was 26.3 µM and the TGI (OVCAR-5 ovarian) was 42.3 µM.
